Assay results: ChEMBL document CHEMBL6153138, “Discovery of Novel Aromatic Urea-Imidazole Salt Derivatives for Cancer Therapy via Targeting ERK1/2” (J Med Chem, 2025)
Activity calls are given as the source filed them. The rule behind the calls is not given here.

Legend:
[1] = molecular target: Mitogen-activated protein kinase 1 (Homo sapiens, UniProt P28482); assay: Inhibition of ERK2 (unknown origin) incubated for 60 mins by luminescence based ADP-Glo kinase assay
[2] = molecular target: Mitogen-activated protein kinase 3 (Homo sapiens, UniProt P27361); assay: Inhibition of ERK1 (unknown origin) incubated for 60 mins by luminescence based ADP-Glo kinase assay
MCF7 [3] = assay: Growth inhibition of human MCF7 cells at 5 uM incubated for 48 hrs by CCK-8 method relative to control; assay type: functional; settings: read-out: GI
HepG2 [4] = assay: Growth inhibition of human HepG2 cells at 5 uM incubated for 48 hrs by CCK-8 method relative to control; assay type: functional; settings: read-out: GI
5637 [5] = assay: Growth inhibition of human 5637 cells at 5 uM incubated for 48 hrs by CCK-8 method relative to control; assay type: functional; settings: read-out: GI
A549 [6] = assay: Growth inhibition of human A549 cells at 5 uM incubated for 48 hrs by CCK-8 method relative to control; assay type: functional; settings: read-out: GI
5637 [7] = assay: Antiproliferative activity against human 5637 cells incubated for 48 hrs by CCK-8 method; assay type: functional, cell-based; settings: Homo sapiens, 5637, 48 h
MCF7 [8] = assay: Antiproliferative activity against human MCF7 cells incubated for 48 hrs by CCK-8 method; assay type: functional, cell-based; settings: MCF7, 48 h
HepG2 [9] = assay: Antiproliferative activity against human HepG2 cells incubated for 48 hrs by CCK-8 method; assay type: functional, cell-based; settings: HepG2, 48 h
A549 [10] = assay: Antiproliferative activity against human A549 cells incubated for 48 hrs by CCK-8 method; assay type: functional, cell-based; settings: A549, 48 h
4T1 [11] = assay: Antiproliferative activity against mouse 4T1 cells incubated for 48 hrs by CCK-8 method; assay type: functional, cell-based; settings: 4T1, 48 h
MCF-10A = assay: Antiproliferative activity against human MCF-10A cells incubated for 48 hrs by CCK-8 method; assay type: functional, cell-based
MDA-MB-468 = assay: Antiproliferative activity against human MDA-MB-468 cells incubated for 48 hrs by CCK-8 method; assay type: functional, cell-based; settings: MDA-MB-468, 48 h
HCC1937 = assay: Antiproliferative activity against human HCC1937 cells incubated for 48 hrs by CCK-8 method; assay type: functional, cell-based; settings: HCC1937, 48 h
MCF7 [12] = assay: Induction of autophagy in human MCF7 cells assessed as increase in Beclin-1 level at 5 uM by Western blot analysis; assay type: functional, cell-based
MCF7 [13] = assay: Induction of autophagy in human MCF7 cells assessed as increase in ATG5 level at 5 uM by Western blot analysis; assay type: functional, cell-based
MCF7 [14] = assay: Activation of ERK1/2 pathway in human MCF7 cells assessed as increase in EGF-induced c-Myc phosphorylation at 5 uM incubated for 30 mins by Western blot analysis; assay type: cell-based
MCF7 [15] = assay: Induction of autophagy in human MCF7 cells assessed as increase in LC3B-II level at 5 uM by Western blot analysis; assay type: functional, cell-based
4T1 [16] = assay: Antitumor activity against mouse 4T1 cells implanted in female BALB/c mouse model assessed as tumor growth inhibition at 50 mg/kg, ip qd measured for 18 days relative to control; assay type: functional; settings: 4T1, 432 h, time 18 day, read-out: TGI
MCF7 [17] = assay: Activation of ERK1/2 pathway in human MCF7 cells assessed as increase in EGF-induced p90RSK phosphorylation at 5 uM incubated for 30 mins by Western blot analysis; assay type: cell-based
MCF7 [18] = assay: Activation of ERK1/2 pathway in human MCF7 cells assessed as increase in EGF-induced ERK phosphorylation at 5 uM incubated for 30 mins by Western blot analysis; assay type: cell-based; settings: filed as activator

Mitogen-activated protein kinase 3, sequence (P27361 whole entry): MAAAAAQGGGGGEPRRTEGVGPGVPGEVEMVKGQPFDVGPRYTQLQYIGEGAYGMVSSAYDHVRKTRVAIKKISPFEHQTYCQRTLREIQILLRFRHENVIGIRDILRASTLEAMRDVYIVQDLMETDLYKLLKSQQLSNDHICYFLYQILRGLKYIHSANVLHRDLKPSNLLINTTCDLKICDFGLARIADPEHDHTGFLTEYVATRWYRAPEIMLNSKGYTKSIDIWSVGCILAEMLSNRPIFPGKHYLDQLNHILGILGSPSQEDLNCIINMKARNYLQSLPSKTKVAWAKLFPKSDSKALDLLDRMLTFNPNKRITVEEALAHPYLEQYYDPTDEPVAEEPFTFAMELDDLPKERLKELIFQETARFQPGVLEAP
Mitogen-activated protein kinase 1, sequence (P28482 whole entry): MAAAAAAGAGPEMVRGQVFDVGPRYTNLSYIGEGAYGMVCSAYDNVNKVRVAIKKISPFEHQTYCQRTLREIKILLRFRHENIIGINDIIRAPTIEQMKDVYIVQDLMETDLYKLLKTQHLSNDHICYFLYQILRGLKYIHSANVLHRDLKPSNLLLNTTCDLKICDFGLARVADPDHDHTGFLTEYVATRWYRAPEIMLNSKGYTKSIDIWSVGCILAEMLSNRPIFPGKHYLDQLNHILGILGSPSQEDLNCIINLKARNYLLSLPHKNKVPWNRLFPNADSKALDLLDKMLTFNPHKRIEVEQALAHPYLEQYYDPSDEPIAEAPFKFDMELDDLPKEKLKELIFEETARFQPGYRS

| SMILES | IC50 [1] [µM] | inhibition of growth at 5 µM (MCF7 [3]) [%] | inhibition of growth at 5 µM (HepG2 [4]) [%] | inhibition of growth at 5 µM 5637 [5] [%] | inhibition of growth at 5 µM (A549 [6]) [%] | IC50 (MCF7 [8]) [µM] | further results |
| --- | --- | --- | --- | --- | --- | --- | --- |
| O=C(N[C@@H](Cc1ccccc1)Cn1c[n+](Cc2cccc3ccccc23)c2ccccc21)c1ccccc1 | > 10 | – | – | – | – | – | IC50 [2]: > 10 µM |
| Cc1n(C[C@@H](NC(=O)Nc2cc(C(F)(F)F)cc(C(F)(F)F)c2)C(C)C)cc[n+]1Cc1ccccc1 | 0.535 | 7.92 | -4.95 | 21.1 | 7.87 | – | – |
| Cc1n(C[C@H](Cc2ccccc2)NC(=O)Nc2cc(C(F)(F)F)cc(C(F)(F)F)c2)cc[n+]1Cc1ccccc1 | 0.376 | 40.5 | 20.8 | 12.8 | 2.07 | – | – |
| CC[C@@H](C)[C@@H](Cn1cc(C(F)(F)F)[n+](Cc2ccccc2)c1)NC(=O)Nc1cc(C(F)(F)F)cc(C(F)(F)F)c1 | 0.507 | 100 | 13.9 | 96.8 | 23.5 | 3.48 | IC50 5637 [7]: 3.47 µM |
| CC[C@@H](C)[C@@H](Cn1c[n+](Cc2ccccc2)c2ccccc21)NC(=O)Nc1cc(C(F)(F)F)cc(C(F)(F)F)c1 | 0.283 | 100 | 100 | 99.5 | 97.8 | 2.68 | IC50 (HepG2 [9]): 2.33 µM; IC50 5637 [7]: 2.94 µM; IC50 (A549 [10]): 3.92 µM |
| O=c1[nH]cc(F)c(=O)[nH]1 [FLUOROURACIL] | – | – | – | – | – | 6 | IC50 (HepG2 [9]): > 10 µM; IC50 5637 [7]: 7.4 µM; IC50 (4T1 [11]): > 10 µM; IC50 (MCF-10A): > 10 µM; IC50 (MDA-MB-468): > 10 µM; IC50 (HCC1937): 5.67 µM |
| CC(=O)N[C@@H](Cc1ccccc1)Cn1cnc2ccccc21 | > 10 | – | – | – | – | – | IC50 [2]: > 10 µM |
| O=C(Nc1cc(C(F)(F)F)cc(C(F)(F)F)c1)N[C@@H](Cc1ccccc1)Cn1c[n+](Cc2ccccc2)c2ccccc21 | 0.206 | 99.5 | 35.3 | 56.8 | 50.6 | 1.55 | – |
| CC(C)Nc1cc(-c2c[nH]c(C(=O)N[C@H](CO)c3cccc(Cl)c3)c2)c(Cl)cn1 [ULIXERTINIB] | – | – | – | – | – | > 10 | IC50 (HepG2 [9]): 6.12 µM; IC50 5637 [7]: > 10 µM; Activity (MCF7 [12]): Active; IC50 (4T1 [11]): > 10 µM; Activity (MCF7 [13]): Active; Activity (MCF7 [14]): inactive; Activity (MCF7 [15]): Active; IC50 (A549 [10]): 5.39 µM; IC50 (MCF-10A): > 10 µM; inhibition in vivo at 50 mg/kg (4T1 [16]): 26.9%; Activity (MCF7 [17]): inactive; Activity (MCF7 [18]): Active; IC50 (MDA-MB-468): > 10 µM; IC50 (HCC1937): > 10 µM |
| O=C(N[C@@H](Cc1ccccc1)Cn1cnc2ccccc21)c1ccccc1 | > 10 | – | – | – | – | – | IC50 [2]: > 10 µM |
| O=C(Nc1cc(C(F)(F)F)cc(C(F)(F)F)c1)N[C@@H](Cc1ccccc1)Cn1cc[n+](Cc2ccccc2)c1 | 0.272 | 82 | 38.1 | 61.9 | 9.26 | – | – |
| CC(=O)N[C@@H](Cc1ccccc1)Cn1c[n+](Cc2cccc3ccccc23)c2ccccc21 | > 10 | – | – | – | – | – | IC50 [2]: > 10 µM |
| CC(C)[C@@H](Cn1c[n+](Cc2ccccc2)c2ccccc21)NC(=O)Nc1cc(C(F)(F)F)cc(C(F)(F)F)c1 | 0.285 | 91.9 | 39.5 | 56.5 | 30.2 | 3.37 | – |
| CC[C@@H](C)[C@@H](Cn1cc[n+](Cc2ccccc2)c1)NC(=O)Nc1cc(C(F)(F)F)cc(C(F)(F)F)c1 | 0.483 | 86.9 | 47.2 | 85.6 | 8.36 | – | – |
| CC[C@@H](C)[C@@H](Cn1cc[n+](Cc2ccccc2)c1C)NC(=O)Nc1cc(C(F)(F)F)cc(C(F)(F)F)c1 | 0.406 | 64 | 71.3 | 17.6 | 8.26 | – | – |
| CC(C)[C@@H](Cn1cc[n+](Cc2ccccc2)c1)NC(=O)Nc1cc(C(F)(F)F)cc(C(F)(F)F)c1 | 0.606 | 55.7 | 24.5 | 31.5 | 7.18 | – | – |
| O=C(Nc1cc(C(F)(F)F)cc(C(F)(F)F)c1)N[C@@H](Cc1ccccc1)Cn1cc(C(F)(F)F)[n+](Cc2ccccc2)c1 | 0.297 | 19.4 | 31.2 | 26.4 | 13.5 | – | – |
